# Source: patent US7329634B2, “3-Phenyl substituted 3-substituted-4ketolactams and ketolactones” (Bayer CropScience AG, priority 2003, dated 2008)
# Columns and labels:
# Meloidogyne incognita = assay: Meloidogyne test; type: in vivo; settings: 20 ppm; nematicidal action by formation of galls on lettuce roots; 100% = no galls
# Protocol: • Solvents: 78 parts by weight of acetone • 1.5 parts by weight of dimethylformamide • Emulsifier: 0.5 part by weight of alkylaryl polyglycol ether
# To produce a suitable preparation of active compound, 1 part by weight of active compound is mixed with the stated amounts of solvent and emulsifier, and the concentrate is diluted with water to the desired concentration.
# Vessels are filled with sand, solution of active compound, Meloidogyne incognita egg/larvae suspension and lettuce seeds. The lettuce seeds germinate and the plants develop. On the roots, galls develop.
# After the desired period of time, the nematicidal action is determined in % by the formation of galls. 100% means that no galls have been found; 0% means that the number of galls on the treated plants corresponds to that of the untreated control.
# [1] = test system: greenhouse red spider mite (Tetranychus urticae); assay: Tetranychus test (OP-resistant/spray treatment); type: in vivo; settings: 100 ppm; spray treatment of bean leaf discs (Phaseolus vulgaris); OP-resistant
# Protocol: Tetranychus Test (OP-Resistant/Spray Treatment)
# • Solvents: 78 parts by weight of acetone • 1.6 parts by weight of dimethylformamide • Emulsifier: 0.5 part by weight of alkylaryl polyglycol ether
# To produce a suitable preparation of active compound, 1 part by weight of active compound is mixed with the stated amounts of solvent and emulsifier, and the concentrate is diluted with emulsifier-containing water to the desired concentration.
# Discs of the leaves of beans (Phaseolus vulgaris) which are infested by all stages of the greenhouse red spider mite (Tetranychus urticae) are sprayed with a preparation of active compound of the desired concentration.
# After the desired period of time, the activity in % is determined. 100% means that all spider mites have been killed; 0% means that none of the spider mites have been killed.
smiles,measurement,setting,value
CCc1cc(Br)cc(Br)c1C1(Cl)C(=O)NC(C)(C)C1=O (centres unmarked) [Ex. I-1-1],Effect in % after 14d,Meloidogyne incognita,100%
same,Kill rate in % after 4d,[1],80%
